According to patent US20260102401A1, “Combination Therapies” (MIRATI THERAPEUTICS, INC., priority 2022, published 2026):

Test system: H2122 cells
Experiment: H2122 cell-line derived xenograft model, tumor volumes
Format: in vivo, nude/nude mice
Conditions: for tumor growth inhibition: Day 17, single agent, H2122 xenograft, 100 mg/kg Compound 478 or 50 mg/kg olaparib p.o. daily; for Average Tumor Volumes: H2122 tumor bearing mice, 100 mg/kg Compound 478 and/or 50 mg/kg olaparib p.o. daily
Experimental: Immunocompromised nude/nude mice were inoculated in the right hind flank with cells or patient derived tumor samples harboring a KRas G12C mutation. When tumor volumes reach ˜300 mm^3 in size, the mice were divided into four groups of 5 mice each. The first group was administered vehicle only. […] The fourth group was orally administered the single agent dose of the KRas G12C inhibitor in combination with the single agent dose of the PARP inhibitor at the matched schedule. The treatment period was 17 days. Tumor volumes were measured using a caliper every two-three days and tumor volumes are calculated by the formula: […].
For example, twenty nude/nude mice were inoculated in the right hind limb with 5×10^6 H2122 cells. When tumor volume reached ˜300 mm^3 (Study Day 1), 5 mice in each of the […] groups were administered p.o. daily for 32 days: vehicle only (10% Captisol in 50 mM citrate buffer pH5.0), 100 mg/kg of KRas G12C inhibitor Compound 478 (10% Captisol in 50 mM citrate buffer, pH 5.0), 50 mg/kg of the PARP inhibitor olaparib (10% Captisol in 50 mM citrate buffer, pH 5.0), or 100 mg/kg of KRas G12C inhibitor Compound 478 and 50 mg/kg of olaparib. Dosing stopped on day 17 for all groups due to large tumor growth in the vehicle and Olaparib only groups.

Structure (SMILES) | tumor growth inhibition [%] | Average Tumor Volumes (Study Day 3) [mm^3] | Average Tumor Volumes (Study Day 6) [mm^3] | Average Tumor Volumes (Study Day 10) [mm^3] | Average Tumor Volumes (Study Day 13) [mm^3] | Average Tumor Volumes (Study Day 17) [mm^3] | Average Tumor Volumes (Study Day −1 (before dosing)) [mm^3]
C=C(F)C(=O)N1CCN(c2nc(OC[C@@H]3CCCN3C)nc3c2CCN(c2cccc4cccc(Cl)c24)C3)C[C@@H]1CC#N [Compound 478, adagrasib] | 89 | 290.578 | 301.744 | 326.222 | 345.38 | 360.308 | 284.794
O=C(c1cc(Cc2n[nH]c(=O)c3ccccc23)ccc1F)N1CCN(C(=O)C2CC2)CC1 [Olaparib, 4-[[3-[4-(cyclopropanecarbonyl)piperazine-1-carbonyl]-4-fluorophenyl]methyl]-2H-phthalazin-1-one] | 0 | 451.342 | 558.15 | 776.514 | 848.664 | 1058.96 | 292.194
